From the supplement of paper PMC10307832

What was measured:
Assay in all cases: relative viability (nuclei count vs DMSO), 5 days (fraction); higher = more cells survive
[1] = compound: O=C(Nc1cccc(C(F)(F)F)c1)Nc1cc(S(=O)(=O)NC2CC2)ccc1-c1ccsc1 [AGI-6780] + O=C(CCCCCCC(=O)Nc1ccccc1)NO [Vorinostat] (partner 1 µM)
Summary of the method: (§1)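 Lung cancer cell lines in 1536-well plates got either a single drug or a fixed anchor-drug dose together with five library-drug doses (not always all listed) in √10 steps, by pin tool, on the day after seeding. Nuclei were counted after 5 days, and relative viability is the treated-to-vehicle ratio of nuclei counts. Values are medians of duplicate plates.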

[2] = compound: O=C(Nc1cccc(C(F)(F)F)c1)Nc1cc(S(=O)(=O)NC2CC2)ccc1-c1ccsc1 [AGI-6780] + Nc1nc2[nH]cc(CCc3ccc(C(=O)N[C@@H](CCC(=O)O)C(=O)O)cc3)c2c(=O)[nH]1 [Pemetrexed] (partner 0.2 µM)
Summary of the method: as §1

[3] = compound: O=C(Nc1cccc(C(F)(F)F)c1)Nc1cc(S(=O)(=O)NC2CC2)ccc1-c1ccsc1 [AGI-6780] + O=C(c1cc(Cc2n[nH]c(=O)c3ccccc23)ccc1F)N1CCN(C(=O)C2CC2)CC1 [Olaparib] (partner 8 µM)
Summary of the method: as §1

[4] = compound: O=C(Nc1cccc(C(F)(F)F)c1)Nc1cc(S(=O)(=O)NC2CC2)ccc1-c1ccsc1 [AGI-6780] + C[C@]1(O)C[C@@H](c2nc(-c3ccc4ccc(-c5ccccc5)nc4c3)c3c(N)nccn32)C1 [Linsitinib] (partner 1 µM)
Summary of the method: as §1

With NCI-H2228 the relative viability ([1]; first compound 0.08 µM) was 0.641, the relative viability ([1]; first compound 0.253 µM) was 0.597 and the relative viability ([1]; first compound 0.8 µM) was 0.592. It also gave a relative viability ([1]; first compound 2.53 µM) of 0.502, a relative viability ([1]; first compound 8 µM) of 0.537 and a relative viability ([2]; first compound 0.08 µM) of 0.338. It also gave a relative viability ([2]; first compound 0.253 µM) of 0.343, a relative viability ([2]; first compound 0.8 µM) of 0.384 and a relative viability ([2]; first compound 2.53 µM) of 0.34. For the same cell line, the relative viability ([2]; first compound 8 µM) was 0.391, the relative viability ([3]; first compound 0.08 µM) was 0.686 and the relative viability ([3]; first compound 0.253 µM) was 0.769. It also gave a relative viability ([3]; first compound 0.8 µM) of 0.591, a relative viability ([3]; first compound 2.53 µM) of 0.41 and a relative viability ([3]; first compound 8 µM) of 0.736. The relative viability ([4]; first compound 0.08 µM) was 0.8, the relative viability ([4]; first compound 0.253 µM) was 1.07 and the relative viability ([4]; first compound 0.8 µM) was 0.604. For the same cell line, the relative viability ([4]; first compound 2.53 µM) was 0.754 and the relative viability ([4]; first compound 8 µM) was 0.629.
In the case of NCI-H2347, the relative viability ([1]; first compound 0.08 µM) is reported as 0.575, the relative viability ([1]; first compound 0.253 µM) is reported as 0.587 and the relative viability ([1]; first compound 0.8 µM) is reported as 0.637. For the same cell line, the relative viability ([1]; first compound 2.53 µM) was 0.553, the relative viability ([1]; first compound 8 µM) was 0.784 and the relative viability ([2]; first compound 0.08 µM) was 0.44. The relative viability ([2]; first compound 0.253 µM) was 0.439, the relative viability ([2]; first compound 0.8 µM) was 0.428 and the relative viability ([2]; first compound 2.53 µM) was 0.448. For the same cell line, the relative viability ([2]; first compound 8 µM) was 0.454, the relative viability ([3]; first compound 0.08 µM) was 0.564 and the relative viability ([3]; first compound 0.253 µM) was 0.561. It also gave a relative viability ([3]; first compound 0.8 µM) of 0.569, a relative viability ([3]; first compound 2.53 µM) of 0.597 and a relative viability ([3]; first compound 8 µM) of 0.592. The relative viability ([4]; first compound 0.08 µM) was 1.04, the relative viability ([4]; first compound 0.253 µM) was 0.849 and the relative viability ([4]; first compound 0.8 µM) was 0.716. It also gave a relative viability ([4]; first compound 2.53 µM) of 0.998 and a relative viability ([4]; first compound 8 µM) of 1.02.
Cell Line NCI-H2405 has a relative viability ([1]; first compound 0.253 µM) of 0.975, a relative viability ([1]; first compound 0.8 µM) of 0.943 and a relative viability ([1]; first compound 2.53 µM) of 0.937. It also gave a relative viability ([1]; first compound 8 µM) of 0.954, a relative viability ([2]; first compound 0.253 µM) of 1.05 and a relative viability ([2]; first compound 0.8 µM) of 0.902. For the same cell line, the relative viability ([2]; first compound 2.53 µM) was 0.975, the relative viability ([2]; first compound 8 µM) was 1.05 and the relative viability ([3]; first compound 0.253 µM) was 0.85. It also gave a relative viability ([3]; first compound 0.8 µM) of 0.776, a relative viability ([3]; first compound 2.53 µM) of 0.838 and a relative viability ([3]; first compound 8 µM) of 0.758. It also gave a relative viability ([4]; first compound 0.08 µM) of 0.931, a relative viability ([4]; first compound 0.253 µM) of 0.933 and a relative viability ([4]; first compound 0.8 µM) of 0.687. The relative viability ([4]; first compound 8 µM) was 0.845.
Cell Line NCI-H3122 has a relative viability ([1]; first compound 0.08 µM) of 1.03, a relative viability ([1]; first compound 0.253 µM) of 0.805 and a relative viability ([1]; first compound 0.8 µM) of 0.843. For the same cell line, the relative viability ([1]; first compound 2.53 µM) was 0.832, the relative viability ([1]; first compound 8 µM) was 1.02 and the relative viability ([2]; first compound 0.08 µM) was 0.209. It also gave a relative viability ([2]; first compound 0.253 µM) of 0.199, a relative viability ([2]; first compound 0.8 µM) of 0.191 and a relative viability ([2]; first compound 2.53 µM) of 0.195. It also gave a relative viability ([2]; first compound 8 µM) of 0.185, a relative viability ([3]; first compound 0.08 µM) of 0.608 and a relative viability ([3]; first compound 0.253 µM) of 0.626. It also gave a relative viability ([3]; first compound 0.8 µM) of 0.725, a relative viability ([3]; first compound 2.53 µM) of 0.706 and a relative viability ([3]; first compound 8 µM) of 0.649. The relative viability ([4]; first compound 0.08 µM) was 1.03, the relative viability ([4]; first compound 0.253 µM) was 0.982 and the relative viability ([4]; first compound 0.8 µM) was 1.01. The relative viability ([4]; first compound 2.53 µM) was 1.08 and the relative viability ([4]; first compound 8 µM) was 1.04.
PC-3 [JPC-3] was tested, and the relative viability ([1]; first compound 0.253 µM) was 0.866, the relative viability ([1]; first compound 0.8 µM) was 1.08 and the relative viability ([1]; first compound 2.53 µM) was 0.967. The relative viability ([1]; first compound 8 µM) was 0.731, the relative viability ([2]; first compound 0.253 µM) was 1.08 and the relative viability ([2]; first compound 0.8 µM) was 1.26. For the same cell line, the relative viability ([2]; first compound 2.53 µM) was 1.19, the relative viability ([2]; first compound 8 µM) was 0.987 and the relative viability ([3]; first compound 0.253 µM) was 1.09. It also gave a relative viability ([3]; first compound 0.8 µM) of 1.11, a relative viability ([3]; first compound 2.53 µM) of 1.18 and a relative viability ([3]; first compound 8 µM) of 0.962. It also gave a relative viability ([4]; first compound 0.08 µM) of 0.995, a relative viability ([4]; first compound 0.253 µM) of 0.952 and a relative viability ([4]; first compound 0.8 µM) of 0.904. For the same cell line, the relative viability ([4]; first compound 2.53 µM) was 0.926 and the relative viability ([4]; first compound 8 µM) was 0.953.
PC-14 was tested, and the relative viability ([1]; first compound 0.08 µM) was 0.919, the relative viability ([1]; first compound 0.253 µM) was 0.708 and the relative viability ([1]; first compound 0.8 µM) was 0.845. For the same cell line, the relative viability ([1]; first compound 2.53 µM) was 0.779, the relative viability ([1]; first compound 8 µM) was 0.799 and the relative viability ([2]; first compound 0.08 µM) was 0.143. For the same cell line, the relative viability ([2]; first compound 0.253 µM) was 0.147, the relative viability ([2]; first compound 0.8 µM) was 0.141 and the relative viability ([2]; first compound 2.53 µM) was 0.16. It also gave a relative viability ([2]; first compound 8 µM) of 0.134, a relative viability ([3]; first compound 0.08 µM) of 0.378 and a relative viability ([3]; first compound 0.253 µM) of 0.282. It also gave a relative viability ([3]; first compound 0.8 µM) of 0.234, a relative viability ([3]; first compound 2.53 µM) of 0.318 and a relative viability ([3]; first compound 8 µM) of 0.276. For the same cell line, the relative viability ([4]; first compound 0.08 µM) was 0.983, the relative viability ([4]; first compound 0.253 µM) was 0.925 and the relative viability ([4]; first compound 0.8 µM) was 0.832. For the same cell line, the relative viability ([4]; first compound 2.53 µM) was 0.903 and the relative viability ([4]; first compound 8 µM) was 0.937.
